According to patent US20240158370A1, “CK1 alpha AND DUAL CK1 alpha / GSPT1 DEGRADING COMPOUNDS” (Innovo Therapeutics, Inc., priority 2022, published 2024):

Columns and labels:
GSPT1 = GSPT1 (Homo sapiens, UniProt P15170+Q96SW2); assay: HiBiT degradation assay, GSPT1, Procedure A; type: cell-based; set-up: HiBit-GSPT1 KI HEK293(LgBit) Cells; host or cells: HEK293(LgBit) knock-in cells; conditions: six hours incubation
Experimental: (§1) Compounds were spotted onto Cornin 384-Well, Cell Culture-Treated, Flat-Bottom, Low Flange Microplate (Fisher Scientific, Catalog #07-201-013) using a Tecan D300e digital dispenser. Ten-point dose response curves spanning from 10 μM to 0.005 μM with a 0.1% DMSO tolerance were used.
(§2) Cells were dissociated from tissue 182 cm^2 Tissue Culture Flask (CellTreat Catalog #229351) by washing the cells with PBS (Fisher Scientific Catalog #BP3994) followed by dissociation with Trypsin-EDTA (0.25%) (Thermo Scientific Catalog #25200056). Trysin was neutralized and cells were resuspended with DMEM+10% FBS. Cells were centrifuged for 5 minutes at 1200 RPMs. Cell culture media was aspirated off and cells were resuspended with DMEM+10% FBS. Cell density was determined using a Denovix CellDrop BF cell counter. Cell density was adjusted to 1×10^6 cells/ml. 40 μl of cells was added to compound treated tissue culture plates and incubated for six hours at 37° C. After six hours, cell culture plates were removed from tissue culture incubator and cooled to room temperature. 40 μl of Nano-GloHiBiT Lytic Detection Reagent (Promega, Catalog #N3040) was added to each well. Plates were placed on an orbital shaker (600 rpm) for 20 minutes. Luminescence was measured using an Envsion plate reader (Perkin Elmer). DC50 curves and Ymin were generated using a 4-parameter curve fit with GraphPad Prism software (Prism Corporation).
(§3) Results from the HiBiT assay (DC50 (nM) and Ymin (% remaining)) are shown below. All CK1α data was generated according to Procedure A. GSPT1 data for Examples 1-600, 603-620 and 703-705 was generated according to Procedure A. GSPT1 data for Examples 601, 621-702 and 706-735 was generated according to Procedure B.

CK1α = target: T1, CK1α (Homo sapiens, UniProt P48729+Q96SW2); assay: HiBiT degradation assay, CK1α, Procedure A; type: cell-based; conditions: six hours incubation
T1 construct: CSNK1A1-HiBit KI HEK293(LgBit) Cells; host or cells: HEK293(LgBit) knock-in cells
T1 sequence (P48729 whole entry): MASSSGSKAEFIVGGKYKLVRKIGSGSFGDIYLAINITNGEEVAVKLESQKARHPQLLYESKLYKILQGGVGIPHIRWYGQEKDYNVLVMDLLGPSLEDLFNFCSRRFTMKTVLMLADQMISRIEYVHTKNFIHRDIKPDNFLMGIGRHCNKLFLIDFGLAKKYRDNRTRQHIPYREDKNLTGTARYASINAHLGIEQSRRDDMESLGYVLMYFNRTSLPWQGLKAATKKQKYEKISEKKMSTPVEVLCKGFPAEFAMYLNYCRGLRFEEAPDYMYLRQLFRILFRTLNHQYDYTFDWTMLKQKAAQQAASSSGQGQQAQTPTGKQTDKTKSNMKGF
T1 sequence (Q96SW2 whole entry): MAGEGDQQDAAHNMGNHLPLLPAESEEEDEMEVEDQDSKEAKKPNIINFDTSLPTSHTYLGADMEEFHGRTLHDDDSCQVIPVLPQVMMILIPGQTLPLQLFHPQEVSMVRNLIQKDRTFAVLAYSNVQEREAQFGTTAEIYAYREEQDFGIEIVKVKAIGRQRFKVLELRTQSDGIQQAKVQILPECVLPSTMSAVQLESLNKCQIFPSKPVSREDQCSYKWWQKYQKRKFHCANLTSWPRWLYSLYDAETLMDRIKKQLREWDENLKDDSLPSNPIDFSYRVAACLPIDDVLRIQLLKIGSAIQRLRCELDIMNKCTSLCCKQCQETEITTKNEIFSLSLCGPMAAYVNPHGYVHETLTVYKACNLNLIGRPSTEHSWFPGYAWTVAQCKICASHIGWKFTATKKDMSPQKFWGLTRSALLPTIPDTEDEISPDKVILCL
T1 sequence (Q16531 whole entry partner): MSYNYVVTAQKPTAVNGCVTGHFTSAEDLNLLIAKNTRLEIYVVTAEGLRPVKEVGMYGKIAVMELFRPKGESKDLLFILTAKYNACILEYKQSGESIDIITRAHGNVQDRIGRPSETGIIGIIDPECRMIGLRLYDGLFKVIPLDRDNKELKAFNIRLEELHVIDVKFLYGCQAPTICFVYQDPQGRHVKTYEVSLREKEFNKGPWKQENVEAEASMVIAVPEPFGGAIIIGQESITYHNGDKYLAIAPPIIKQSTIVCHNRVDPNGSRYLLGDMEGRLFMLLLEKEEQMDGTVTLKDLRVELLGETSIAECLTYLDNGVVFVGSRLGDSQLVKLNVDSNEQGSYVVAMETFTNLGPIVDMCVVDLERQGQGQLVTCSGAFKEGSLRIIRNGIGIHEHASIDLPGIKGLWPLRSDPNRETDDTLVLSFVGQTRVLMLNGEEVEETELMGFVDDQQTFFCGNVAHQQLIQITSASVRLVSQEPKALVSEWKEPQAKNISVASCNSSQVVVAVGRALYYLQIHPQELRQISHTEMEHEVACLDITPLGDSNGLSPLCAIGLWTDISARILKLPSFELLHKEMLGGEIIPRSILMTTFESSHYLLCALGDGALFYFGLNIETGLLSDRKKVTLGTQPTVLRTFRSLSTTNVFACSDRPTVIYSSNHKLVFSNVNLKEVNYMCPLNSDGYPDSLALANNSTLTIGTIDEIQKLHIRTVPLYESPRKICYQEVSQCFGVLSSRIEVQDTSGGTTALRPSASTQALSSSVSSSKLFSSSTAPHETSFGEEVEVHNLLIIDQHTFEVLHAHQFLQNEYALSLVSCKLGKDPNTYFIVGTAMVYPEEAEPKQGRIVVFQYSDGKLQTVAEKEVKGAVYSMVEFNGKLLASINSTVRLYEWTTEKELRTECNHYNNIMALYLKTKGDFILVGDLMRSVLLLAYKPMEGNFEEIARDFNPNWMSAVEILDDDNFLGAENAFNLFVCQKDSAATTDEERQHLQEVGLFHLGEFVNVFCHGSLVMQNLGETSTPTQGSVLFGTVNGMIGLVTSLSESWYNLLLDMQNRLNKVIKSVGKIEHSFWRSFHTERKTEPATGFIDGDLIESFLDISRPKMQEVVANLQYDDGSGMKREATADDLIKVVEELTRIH
Experimental: as §1, §2, §3

GSPT1, sequence (P15170 whole entry): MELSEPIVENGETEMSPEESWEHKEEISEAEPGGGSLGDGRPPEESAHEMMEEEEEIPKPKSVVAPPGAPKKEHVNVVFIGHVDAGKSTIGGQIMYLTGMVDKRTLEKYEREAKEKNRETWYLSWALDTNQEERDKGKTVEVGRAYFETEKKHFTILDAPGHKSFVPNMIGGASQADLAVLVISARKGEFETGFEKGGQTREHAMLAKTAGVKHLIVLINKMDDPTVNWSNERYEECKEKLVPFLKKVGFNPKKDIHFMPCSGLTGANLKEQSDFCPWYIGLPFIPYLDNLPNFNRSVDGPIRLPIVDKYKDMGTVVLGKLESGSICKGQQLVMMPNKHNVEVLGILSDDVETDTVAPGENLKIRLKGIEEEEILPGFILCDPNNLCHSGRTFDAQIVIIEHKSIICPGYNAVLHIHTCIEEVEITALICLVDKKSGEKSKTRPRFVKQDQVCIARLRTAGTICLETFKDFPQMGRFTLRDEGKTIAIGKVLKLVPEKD
GSPT1, sequence (Q96SW2 whole entry): as the sequence (Q96SW2 whole entry) above
GSPT1, sequence (Q16531 whole entry partner): as the sequence (Q16531 whole entry partner) above

**Q.** With `COc1ccc(Cl)c(-c2c(-c3ccc4c(c3)CN(C3CCC(=O)NC3=O)C4=O)cnn2C)c1` (centres unmarked) [Example 82] as the molecule, how does the DC50 (GSPT1) read?
**A.** ≥ 25 nM

**Q.** And the “GSPT1 Ymin” value (GSPT1)?
**A.** F (F = >75-100% remaining)

**Q.** And the “CK1α Ymin” value (CK1α)?
**A.** E (E = >25-75% remaining)

**Q.** What about the DC50 (CK1α) of the same molecule?
**A.** < 25 nM

**Q.** Which DC50 (GSPT1) does the source give for `Cc1ccc(-c2c(-c3ccc4c(c3)CN(C3CCC(=O)NC3=O)C4=O)cnn2C)c(C)c1` (centres unmarked) [Example 83] here?
**A.** ≥ 25 nM

**Q.** And the “GSPT1 Ymin” value (GSPT1)?
**A.** F (F = >75-100% remaining)

**Q.** And the “CK1α Ymin” value (CK1α)?
**A.** E (E = >25-75% remaining)

**Q.** And the DC50 (CK1α)?
**A.** < 25 nM

**Q.** With `CC(C)c1ccc(-c2c(-c3ccc4c(c3)CN(C3CCC(=O)NC3=O)C4=O)cnn2C)cc1` (centres unmarked) [Example 84] as the molecule, how does the DC50 (GSPT1) read?
**A.** ≥ 25 nM

**Q.** What about the “GSPT1 Ymin” value (GSPT1) of the same molecule?
**A.** F (F = >75-100% remaining)

**Q.** And the “CK1α Ymin” value (CK1α)?
**A.** E (E = >25-75% remaining)

**Q.** And the DC50 (CK1α)?
**A.** < 25 nM

**Q.** What does the source list for `Cc1ccc(-c2c(-c3ccc4c(c3)CN(C3CCC(=O)NC3=O)C4=O)cnn2C)c(Cl)c1` (centres unmarked) [Example 85]?
**A.** DC50 (GSPT1): ≥ 25 nM; GSPT1 Ymin (GSPT1): F (F = >75-100% remaining); CK1α Ymin (CK1α): E (E = >25-75% remaining); DC50 (CK1α): < 25 nM

**Q.** Which DC50 (GSPT1) does the source give for `Cc1ccc(Cl)c(-c2c(-c3ccc4c(c3)CN(C3CCC(=O)NC3=O)C4=O)cnn2C)c1` (centres unmarked) [Example 86] here?
**A.** ≥ 25 nM

**Q.** What about the “GSPT1 Ymin” value (GSPT1) of the same molecule?
**A.** F (F = >75-100% remaining)

**Q.** What about the “CK1α Ymin” value (CK1α) of the same molecule?
**A.** E (E = >25-75% remaining)

**Q.** What about the DC50 (CK1α) of the same molecule?
**A.** < 25 nM

**Q.** `Cc1ccc(C)c(-c2c(-c3ccc4c(c3)CN(C3CCC(=O)NC3=O)C4=O)cnn2C)c1` (centres unmarked) [Example 87] was tested. Which DC50 (GSPT1) did it give?
**A.** ≥ 25 nM

**Q.** And the “GSPT1 Ymin” value (GSPT1)?
**A.** F (F = >75-100% remaining)

**Q.** And the “CK1α Ymin” value (CK1α)?
**A.** E (E = >25-75% remaining)

**Q.** What about the DC50 (CK1α) of the same molecule?
**A.** < 25 nM

**Q.** With `Cn1ncc(-c2ccc3c(c2)CN(C2CCC(=O)NC2=O)C3=O)c1-c1ccc(F)cc1Cl` (centres unmarked) [Example 88] as the molecule, how does the DC50 (GSPT1) read?
**A.** ≥ 25 nM

**Q.** What about the “GSPT1 Ymin” value (GSPT1) of the same molecule?
**A.** F (F = >75-100% remaining)

**Q.** What about the “CK1α Ymin” value (CK1α) of the same molecule?
**A.** E (E = >25-75% remaining)

**Q.** And the DC50 (CK1α)?
**A.** < 25 nM

**Q.** Which DC50 (GSPT1) does the source give for `Cc1ccc(F)c(-c2c(-c3ccc4c(c3)CN(C3CCC(=O)NC3=O)C4=O)cnn2C)c1` (centres unmarked) [Example 89] here?
**A.** ≥ 25 nM

**Q.** What about the “GSPT1 Ymin” value (GSPT1) of the same molecule?
**A.** F (F = >75-100% remaining)

**Q.** And the “CK1α Ymin” value (CK1α)?
**A.** E (E = >25-75% remaining)

**Q.** What about the DC50 (CK1α) of the same molecule?
**A.** < 25 nM

**Q.** How did the DC50 (GSPT1) turn out when `Cn1ncc(-c2ccc3c(c2)CN(C2CCC(=O)NC2=O)C3=O)c1-c1ccc(Cl)c(F)c1` (centres unmarked) [Example 90] was run?
**A.** ≥ 25 nM

**Q.** What about the “GSPT1 Ymin” value (GSPT1) of the same molecule?
**A.** F (F = >75-100% remaining)

**Q.** What about the “CK1α Ymin” value (CK1α) of the same molecule?
**A.** E (E = >25-75% remaining)

**Q.** What about the DC50 (CK1α) of the same molecule?
**A.** < 25 nM

**Q.** Which results are given for `Cc1cc(-c2c(-c3ccc4c(c3)CN(C3CCC(=O)NC3=O)C4=O)cnn2C)ccc1F` (centres unmarked) [Example 91]?
**A.** DC50 (GSPT1): ≥ 25 nM; GSPT1 Ymin (GSPT1): E (E = >25-75% remaining); CK1α Ymin (CK1α): E (E = >25-75% remaining); DC50 (CK1α): < 25 nM

**Q.** How did the DC50 (GSPT1) turn out when `CC(C)Cc1ccc(-c2c(-c3ccc4c(c3)CN(C3CCC(=O)NC3=O)C4=O)cnn2C)cc1` (centres unmarked) [Example 92] was run?
**A.** ≥ 25 nM

**Q.** What about the “GSPT1 Ymin” value (GSPT1) of the same molecule?
**A.** F (F = >75-100% remaining)

**Q.** And the “CK1α Ymin” value (CK1α)?
**A.** E (E = >25-75% remaining)

**Q.** What about the DC50 (CK1α) of the same molecule?
**A.** ≥ 25 nM

**Q.** What does the source list for `Cn1ncc(-c2ccc3c(c2)CN(C2CCC(=O)NC2=O)C3=O)c1-c1cc(Cl)ccc1F` (centres unmarked) [Example 93]?
**A.** DC50 (GSPT1): ≥ 25 nM; GSPT1 Ymin (GSPT1): F (F = >75-100% remaining); CK1α Ymin (CK1α): E (E = >25-75% remaining); DC50 (CK1α): ≥ 25 nM

**Q.** How did the DC50 (GSPT1) turn out when `Cc1ccc(-c2c(-c3ccc4c(c3)CN(C3CCC(=O)NC3=O)C4=O)cnn2C)c(F)c1` (centres unmarked) [Example 94] was run?
**A.** ≥ 25 nM

**Q.** And the “GSPT1 Ymin” value (GSPT1)?
**A.** F (F = >75-100% remaining)

**Q.** And the “CK1α Ymin” value (CK1α)?
**A.** D (D = >10- 25% remaining)

**Q.** What about the DC50 (CK1α) of the same molecule?
**A.** < 25 nM

**Q.** What does the source list for `Cn1ncc(-c2ccc3c(c2)CN(C2CCC(=O)NC2=O)C3=O)c1-c1ccsc1` (centres unmarked) [Example 95]?
**A.** DC50 (GSPT1): ≥ 25 nM; GSPT1 Ymin (GSPT1): F (F = >75-100% remaining); CK1α Ymin (CK1α): D (D = >10- 25% remaining); DC50 (CK1α): < 25 nM

**Q.** Which results are given for `COc1ccccc1-c1c(-c2ccc3c(c2)CN(C2CCC(=O)NC2=O)C3=O)cnn1C` (centres unmarked) [Example 96]?
**A.** DC50 (GSPT1): ≥ 25 nM; GSPT1 Ymin (GSPT1): F (F = >75-100% remaining); CK1α Ymin (CK1α): E (E = >25-75% remaining); DC50 (CK1α): ≥ 25 nM

**Q.** With `Cn1ncc(-c2ccc3c(c2)CN(C2CCC(=O)NC2=O)C3=O)c1-c1ccc2c(c1)CCO2` (centres unmarked) [Example 97] as the molecule, how does the DC50 (GSPT1) read?
**A.** ≥ 25 nM

**Q.** And the “GSPT1 Ymin” value (GSPT1)?
**A.** F (F = >75-100% remaining)

**Q.** And the “CK1α Ymin” value (CK1α)?
**A.** D (D = >10- 25% remaining)

**Q.** What about the DC50 (CK1α) of the same molecule?
**A.** < 25 nM

**Q.** For `Cn1ncc(-c2ccc3c(c2)CN(C2CCC(=O)NC2=O)C3=O)c1-c1ccc(C(=O)NC2CCCC2)cc1` (centres unmarked) [Example 98], which DC50 (GSPT1) is on record?
**A.** ≥ 25 nM

**Q.** And the “GSPT1 Ymin” value (GSPT1)?
**A.** F (F = >75-100% remaining)

**Q.** What about the “CK1α Ymin” value (CK1α) of the same molecule?
**A.** E (E = >25-75% remaining)

**Q.** And the DC50 (CK1α)?
**A.** ≥ 25 nM
